Laboratory results from the supplement of paper PMC10307832.

Columns and labels:
Experiment in all cases: relative viability (nuclei count vs DMSO), 5 days (fraction); higher = more cells survive
EPLC-272H = test system: EPLC-272H
Summary of the method: (§1)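 Five library-drug doses in √10 steps were combined with a fixed anchor-drug dose, or a single drug was given alone, by pin tool to lung cancer cell lines in 1536-well plates the day after seeding. Nuclei were stained and counted after 5 days. Relative viability is the nuclei count in treated wells over that in vehicle wells, taken as the median of duplicate plates.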

H3255 = test system: H3255
Summary of the method: as §1

HARA = test system: HARA
Summary of the method: as §1

LC-2-ad = test system: LC-2-ad
Summary of the method: as §1

LOU-NH91 = test system: LOU-NH91
Summary of the method: as §1

NCI-H1650 = test system: NCI-H1650
Summary of the method: as §1

NCI-H1651 = test system: NCI-H1651
Summary of the method: as §1

NCI-H1975 = test system: NCI-H1975
Summary of the method: as §1

NCI-H2009 = test system: NCI-H2009
Summary of the method: as §1

NCI-H2023 = test system: NCI-H2023
Summary of the method: as §1

NCI-H2085 = test system: NCI-H2085
Summary of the method: as §1

NCI-H2087 = test system: NCI-H2087
Summary of the method: as §1

NCI-H2170 = test system: NCI-H2170
Summary of the method: as §1

NCI-H2228 = test system: NCI-H2228
Summary of the method: as §1

NCI-H23 = test system: NCI-H23
Summary of the method: as §1

NCI-H441 = test system: NCI-H441
Summary of the method: as §1

NCI-H650 = test system: NCI-H650
Summary of the method: as §1

NCI-H727 = test system: NCI-H727
Summary of the method: as §1

NCI-H838 = test system: NCI-H838
Summary of the method: as §1

PC-3 [JPC-3] = test system: PC-3 [JPC-3]
Summary of the method: as §1

SW 1573 = test system: SW 1573
Summary of the method: as §1

SW 900 = test system: SW 900
Summary of the method: as §1

UMC-11 = test system: UMC-11
Summary of the method: as §1

`Cc1cn(-c2cc(NC(=O)c3ccc(C)c(Nc4nccc(-c5cccnc5)n4)c3)cc(C(F)(F)F)c2)cn1` [Nilotinib] + CC(=O)Nc1cccc(-n2c(=O)n(C3CC3)c(=O)c3c(Nc4ccc(I)cc4F)n(C)c(=O)c(C)c32)c1 [Trametinib] (partner 0.02 µM) gave a relative viability (EPLC-272H; first compound 0.001 µM) of 0.289, a relative viability (EPLC-272H; first compound 0.003162 µM) of 0.233 and a relative viability (EPLC-272H; first compound 0.01 µM) of 0.34. For the same molecule, the relative viability (EPLC-272H; first compound 0.03162 µM) was 0.273, the relative viability (EPLC-272H; first compound 0.1 µM) was 0.225 and the relative viability (H3255; first compound 0.001 µM) was 0.617. The relative viability (H3255; first compound 0.003162 µM) was 0.582, the relative viability (H3255; first compound 0.03162 µM) was 0.53 and the relative viability (H3255; first compound 0.1 µM) was 0.947. It also gave a relative viability (HARA; first compound 0.001 µM) of 0.43, a relative viability (HARA; first compound 0.003162 µM) of 0.468 and a relative viability (HARA; first compound 0.01 µM) of 0.522. The relative viability (HARA; first compound 0.03162 µM) was 0.402, the relative viability (HARA; first compound 0.1 µM) was 0.289 and the relative viability (LC-2-ad; first compound 0.001 µM) was 0.876. The relative viability (LC-2-ad; first compound 0.003162 µM) was 1.09, the relative viability (LC-2-ad; first compound 0.01 µM) was 0.967 and the relative viability (LC-2-ad; first compound 0.03162 µM) was 0.596. The relative viability (LC-2-ad; first compound 0.1 µM) was 0.517, the relative viability (LOU-NH91; first compound 0.001 µM) was 0.799 and the relative viability (LOU-NH91; first compound 0.003162 µM) was 0.818. The relative viability (LOU-NH91; first compound 0.01 µM) was 0.846, the relative viability (LOU-NH91; first compound 0.03162 µM) was 0.77 and the relative viability (LOU-NH91; first compound 0.1 µM) was 0.765. For the same molecule, the relative viability (NCI-H1650; first compound 0.001 µM) was 0.608, the relative viability (NCI-H1650; first compound 0.003162 µM) was 0.735 and the relative viability (NCI-H1650; first compound 0.01 µM) was 0.531. It also gave a relative viability (NCI-H1650; first compound 0.03162 µM) of 0.471, a relative viability (NCI-H1650; first compound 0.1 µM) of 0.327 and a relative viability (NCI-H1651; first compound 0.001 µM) of 0.828. It also gave a relative viability (NCI-H1651; first compound 0.003162 µM) of 0.916, a relative viability (NCI-H1651; first compound 0.01 µM) of 0.951 and a relative viability (NCI-H1651; first compound 0.03162 µM) of 0.761. It also gave a relative viability (NCI-H1651; first compound 0.1 µM) of 0.851, a relative viability (NCI-H1975; first compound 0.001 µM) of 0.338 and a relative viability (NCI-H1975; first compound 0.003162 µM) of 0.338. For the same molecule, the relative viability (NCI-H1975; first compound 0.01 µM) was 0.308, the relative viability (NCI-H1975; first compound 0.03162 µM) was 0.241 and the relative viability (NCI-H1975; first compound 0.1 µM) was 0.234. The relative viability (NCI-H2009; first compound 0.001 µM) was 0.232, the relative viability (NCI-H2009; first compound 0.003162 µM) was 0.203 and the relative viability (NCI-H2009; first compound 0.01 µM) was 0.278. It also gave a relative viability (NCI-H2009; first compound 0.03162 µM) of 0.2, a relative viability (NCI-H2009; first compound 0.1 µM) of 0.197 and a relative viability (NCI-H2023; first compound 0.001 µM) of 0.485. For the same molecule, the relative viability (NCI-H2023; first compound 0.003162 µM) was 0.619, the relative viability (NCI-H2023; first compound 0.01 µM) was 0.508 and the relative viability (NCI-H2023; first compound 0.03162 µM) was 0.329. It also gave a relative viability (NCI-H2023; first compound 0.1 µM) of 0.433, a relative viability (NCI-H2085; first compound 0.001 µM) of 0.483 and a relative viability (NCI-H2085; first compound 0.003162 µM) of 0.584. For the same molecule, the relative viability (NCI-H2085; first compound 0.01 µM) was 0.469, the relative viability (NCI-H2085; first compound 0.03162 µM) was 0.456 and the relative viability (NCI-H2085; first compound 0.1 µM) was 0.54. The relative viability (NCI-H2087; first compound 0.001 µM) was 0.189, the relative viability (NCI-H2087; first compound 0.003162 µM) was 0.322 and the relative viability (NCI-H2087; first compound 0.01 µM) was 0.153. For the same molecule, the relative viability (NCI-H2087; first compound 0.03162 µM) was 0.143, the relative viability (NCI-H2087; first compound 0.1 µM) was 0.126 and the relative viability (NCI-H2170; first compound 0.001 µM) was 0.816. The relative viability (NCI-H2170; first compound 0.003162 µM) was 1.23, the relative viability (NCI-H2170; first compound 0.01 µM) was 1.1 and the relative viability (NCI-H2170; first compound 0.03162 µM) was 0.842. For the same molecule, the relative viability (NCI-H2170; first compound 0.1 µM) was 0.868, the relative viability (NCI-H2228; first compound 0.001 µM) was 0.437 and the relative viability (NCI-H2228; first compound 0.003162 µM) was 0.552. It also gave a relative viability (NCI-H2228; first compound 0.01 µM) of 0.576, a relative viability (NCI-H2228; first compound 0.03162 µM) of 0.255 and a relative viability (NCI-H2228; first compound 0.1 µM) of 0.295. It also gave a relative viability (NCI-H23; first compound 0.001 µM) of 0.319, a relative viability (NCI-H23; first compound 0.01 µM) of 0.292 and a relative viability (NCI-H23; first compound 0.03162 µM) of 0.202. For the same molecule, the relative viability (NCI-H23; first compound 0.1 µM) was 0.197, the relative viability (NCI-H441; first compound 0.001 µM) was 0.437 and the relative viability (NCI-H441; first compound 0.003162 µM) was 0.569. It also gave a relative viability (NCI-H441; first compound 0.01 µM) of 0.468, a relative viability (NCI-H441; first compound 0.03162 µM) of 0.299 and a relative viability (NCI-H441; first compound 0.1 µM) of 0.37. For the same molecule, the relative viability (NCI-H650; first compound 0.001 µM) was 0.952, the relative viability (NCI-H650; first compound 0.003162 µM) was 0.915 and the relative viability (NCI-H650; first compound 0.01 µM) was 1.03. For the same molecule, the relative viability (NCI-H650; first compound 0.03162 µM) was 0.974, the relative viability (NCI-H650; first compound 0.1 µM) was 0.9 and the relative viability (NCI-H727; first compound 0.001 µM) was 0.405. For the same molecule, the relative viability (NCI-H727; first compound 0.003162 µM) was 0.388, the relative viability (NCI-H727; first compound 0.01 µM) was 0.355 and the relative viability (NCI-H727; first compound 0.03162 µM) was 0.368. For the same molecule, the relative viability (NCI-H727; first compound 0.1 µM) was 0.345, the relative viability (NCI-H838; first compound 0.001 µM) was 0.462 and the relative viability (NCI-H838; first compound 0.003162 µM) was 0.617. It also gave a relative viability (NCI-H838; first compound 0.01 µM) of 0.567, a relative viability (NCI-H838; first compound 0.03162 µM) of 0.339 and a relative viability (NCI-H838; first compound 0.1 µM) of 0.494. For the same molecule, the relative viability (PC-3 [JPC-3]; first compound 0.001 µM) was 0.847, the relative viability (PC-3 [JPC-3]; first compound 0.01 µM) was 0.7 and the relative viability (PC-3 [JPC-3]; first compound 0.03162 µM) was 0.523. The relative viability (PC-3 [JPC-3]; first compound 0.1 µM) was 0.591, the relative viability (SW 1573; first compound 0.001 µM) was 0.487 and the relative viability (SW 1573; first compound 0.003162 µM) was 0.72. The relative viability (SW 1573; first compound 0.01 µM) was 0.456, the relative viability (SW 1573; first compound 0.1 µM) was 0.314 and the relative viability (SW 900; first compound 0.003162 µM) was 0.973. For the same molecule, the relative viability (SW 900; first compound 0.03162 µM) was 0.76, the relative viability (SW 900; first compound 0.1 µM) was 0.613 and the relative viability (UMC-11; first compound 0.001 µM) was 0.635. For the same molecule, the relative viability (UMC-11; first compound 0.003162 µM) was 0.801, the relative viability (UMC-11; first compound 0.01 µM) was 0.742 and the relative viability (UMC-11; first compound 0.03162 µM) was 0.446. It also gave a relative viability (UMC-11; first compound 0.1 µM) of 0.317.
